Measurements from patent publication US12227510B2, “Crystal form of acid addition salt of furopyrimidine compound” (HANMI PHARM. CO., LTD., priority 2019, dated 2025).
Values after ≈ are worked out from the molar mass of the structure shown. Where two headings read alike, the source gives them in different places.

Key:
[1] = Dynamic vapor sorption (DVS) hygroscopicity; assay type: physicochemical
Method: DVS analysis was performed in a DVS advantage (Surface measurement system, United Kingdom) analyzer at 25° C. with a relative humidity of 0% to 90%. 10 mg of a sample was placed into a wire-mesh vapor sorption balance pan, and then attached to a DVS-advantage dynamic vapor sorption balance via surface measurement systems. Until a stable weight was achieved (99.5% completion of steps), the sample was applied to a ramping profile with a relative humidity (RH) of 10% to 90% with a 10% increase of the sample while maintaining the sample in each step. Upon completion of the sorption cycle, the sample was dried using the same process while maintaining a relative humidity of […]. The changes in the sample weight during the adsorption/desorption cycle (repeated 3 times) were recorded, and the hygroscopicity of the sample was measured.

[2] = Stability of the crystalline form under storage conditions; assay type: physicochemical; conditions: for stability under long-term storage conditions: temperature of 25° C. and relative humidity of 60%; for stability under accelerated conditions: temperature of 40° C. and relative humidity of 75%
Method: (§1) HPLC analysis was performed for analyzing purity and contents such as a stability test, etc., using an Agilent 1100/1200 series HPLC Systems (Agilent, USA) analyzer, and the conditions used for HPLC were as follows. • Purity and Content Analysis Conditions: Furopyrimidine Compound of Formula 1 • Column: Hydrosphere C18 (YMC), 5 μm (150 mm×4.6 mm) • Column temperature: 30° C. • Detector: UV spectrophotometer • Detection wavelength: 254 nm • Flow rate: 1.0 mL/min • Time of analysis: 35 min • Eluent: NaClO4—NaH2PO4— phosphate buffer solution (pH 2.5±0.1)/CH3CN=65/35(v/v %) 5. Ion Chromatography (IC)

[3] = assay type: physicochemical; conditions: for pH of solution: solution of the water solubility test, 20 mg/mL in water
Method: as §1
To measure water solubility, each sample of the acid addition salts of the compound of Formula 1 prepared in Examples 1 to 6 was prepared in deionized water under the following conditions, and then each solution was analyzed by HPLC according to content measurement conditions of the compound of Formula 1. The dissolved amounts (LOD: more than 0.001 mg/mL) based on the compound of Formula 1 were measured, and then the values were converted.
In detail, each 100 mg of various forms was added to 5 mL of water, and mixed using a Voltamixer at 20° C. to 25° C., and a filtrate filtered using GH Polypro membrane Acrodisc, PALL (pore size of 0.2 μm) was diluted with a dilution solvent for HPLC.

[4] = amorphous compound of Formula 1 as prepared in the reference documents; cited from earlier work
[5] = 25° C., region with a relative humidity of 10% to 90%

In the case of `C=CC(=O)Nc1cccc(Oc2nc(Nc3ccc(N4CCN(C)CC4)cc3)nc3ccoc23)c1` [Example 2, N-(3-(2-(4-(4-methylpiperazin-1-yl)phenylamino)furo[3,2-d]pyrimidin-4-yloxy)phenyl)acrylamide], the “water absorption in DVS” value [1, 5] is reported as “about 0.8%”, the “stability under long-term storage conditions” value [2] is reported as “sufficiently stable” and the “stability under accelerated conditions” value [2] is reported as “sufficiently stable”. For the same molecule, the Solubility [3] was 0.3~0.7 mg/mL and the pH of solution ([3]; listed as 1HCl•2H2O) was 5.8~5.9.

For `C=CC(=O)Nc1cccc(Oc2nc(Nc3ccc(N4CCN(C)CC4)cc3)nc3ccoc23)c1` [Example 4, N-(3-(2-(4-(4-methylpiperazin-1-yl)phenylamino)furo[3,2-d]pyrimidin-4-yloxy)phenyl)acrylamide], the “water absorption in DVS” value [1, 5] was “about 2%”, the “stability under long-term storage conditions” value [2] was “sufficiently stable” and the “stability under accelerated conditions” value [2] was “sufficiently stable”. The Solubility [3] was 1.13 mg/mL (≈ 2400 µM) and the pH of solution ([3]; listed as 1MsOH•anhydrous) was 6.3.

With `C=CC(=O)Nc1cccc(Oc2nc(Nc3ccc(N4CCN(C)CC4)cc3)nc3ccoc23)c1` [Example 5, N-(3-(2-(4-(4-methylpiperazin-1-yl)phenylamino)furo[3,2-d]pyrimidin-4-yloxy)phenyl)acrylamide] the “water absorption in DVS” value [1, 5] was “about 1%”, the “stability under long-term storage conditions” value [2] was “sufficiently stable” and the “stability under accelerated conditions” value [2] was “sufficiently stable”. It also gave a Solubility [3] of 0.93 mg/mL (≈ 1980 µM) and a pH of solution ([3]; listed as 1MsOH•1H2O) of 6.1.

For `C=CC(=O)Nc1cccc(Oc2nc(Nc3ccc(N4CCN(C)CC4)cc3)nc3ccoc23)c1` [Example 6, N-(3-(2-(4-(4-methylpiperazin-1-yl)phenylamino)furo[3,2-d]pyrimidin-4-yloxy)phenyl)acrylamide], the “water absorption in DVS” value [1, 5] was “about 1%”, the “stability under long-term storage conditions” value [2] was “sufficiently stable” and the “stability under accelerated conditions” value [2] was “sufficiently stable”. The Solubility [3] was 9.59 mg/mL (≈ 20400 µM), the “solubility compared in words” value [3] was “remarkably high solubility” and the pH of solution ([3]; listed as 1EsOH anhydrous) was 6.3.

With `C=CC(=O)Nc1cccc(Oc2nc(Nc3ccc(N4CCN(C)CC4)cc3)nc3ccoc23)c1` [Example 1, N-(3-(2-(4-(4-methylpiperazin-1-yl)phenylamino)furo[3,2-d]pyrimidin-4-yloxy)phenyl)acrylamide] the “water absorption in DVS” value ([1]; region with a relative humidity of 0% to 20%) was “showed water absorption”, the “water absorption in DVS” value ([1]; region with a relative humidity of 30% or more) was “very low water absorption” and the “stability under harsh conditions” value ([2]; printed: temperature of 40° C. and relative humidity of 75%) was “sufficiently stable”. For the same molecule, the “stability under long-term storage conditions” value [2] was “sufficiently stable”, the “stability under accelerated conditions” value [2] was “sufficiently stable” and the Solubility [3] was 0.9~1.4 mg/mL. For the same molecule, the “solubility compared in words” value [3] was “higher solubility than the crystalline form of the monohydrochloride” and the pH of solution ([3]; listed as 2HCl•3H2O) was 2.3~2.4.

For `C=CC(=O)Nc1cccc(Oc2nc(Nc3ccc(N4CCN(C)CC4)cc3)nc3ccoc23)c1` [Formula 1 (Free base), N-(3-(2-(4-(4-methylpiperazin-1-yl)phenylamino)furo[3,2-d]pyrimidin-4-yloxy)phenyl)acrylamide], the solubility in water [4] is listed as “less than 0.001 mg/mL”, the Solubility [3] is listed as 0.001 mg/mL and the pH of solution [3] is listed as 7.2~7.3.

In the case of `C=CC(=O)Nc1cccc(Oc2nc(Nc3ccc(N4CCN(C)CC4)cc3)nc3ccoc23)c1` [Example 3, N-(3-(2-(4-(4-methylpiperazin-1-yl)phenylamino)furo[3,2-d]pyrimidin-4-yloxy)phenyl)acrylamide], the “water absorption in DVS” value [1, 5] is reported as “about 1%”, the “stability under long-term storage conditions” value [2] is reported as “sufficiently stable” and the “stability under accelerated conditions” value [2] is reported as “sufficiently stable”. The Solubility [3] was 1.27 mg/mL (≈ 2700 µM) and the pH of solution ([3]; listed as 1HCl•anhydrous) was 5.9~6.0.
